Test results taken from patent US20220151982A1, “CANNABINOID COMPOSITIONS AND USE THEREOF” (priority 2019, published 2022).
Several values for one entry are separate records, joined by “and”; a condition that tells them apart may be missing. Identical values can stand only once. Like-named read-outs stand apart in the source and are kept apart here.

How the values were obtained:
[1] = test system: resistant pancreatic cancer cells (PANC-1); assay type: cell-based; details: 4 h exposure, XTT after 72 h
Protocol: (§1) A resistant pancreatic cancer cells line (PANC-1) was exposed to fluorouracil (5-FU), Tetrahydrocannabinolic acid (THCa) and combination thereof. The cells were exposed to the treatment agents for 4 hours, after which the media was replaced. Cell survival/death levels were measured after 72 hours by XTT. The percent of cell survival was determined as the absorbance signal with subtracted background (media only) and normalized by mock. Each experimental combination was performed in quadruplicate/pentaplicate.

[2] = test system: resistant ovarian cancer cells (NAR); assay type: cell-based; details: 4 h exposure, XTT after 72 h
Protocol: as §1, with “A non-resistant ovarian cancer cells lines (OVCAR8) and a” for “A”, “resistant ovarian” for “resistant pancreatic”, “line (NAR) were” for “line (PANC-1) was”, “to various concentrations of Doxorubicin (Dox),” for “to fluorouracil (5-FU),”, “and combinations” for “and combination”
(§2) A non-resistant ovarian cancer cells line (OVCAR8) and a resistant ovarian cancer cell line (NAR) were exposed to various concentrations of Doxorubicin (Dox), Cannabidiol (CBD) and combinations thereof. The cells were exposed to the treatment agents for 4 hours, after which the media was replaced. Cell survival/death levels were measured after 72 hours by XTT. The percent of cell survival was determined as the absorbance signal with subtracted background (media only) and normalized by mock. Each experimental combination was performed in quadruplicate/pentaplicate.
(§3) The resistant ovarian cancer cells line (NAR) was exposed to various concentrations of Taxol (Paclitaxel), Tetrahydrocannabinolic acid (THCa) and combinations thereof. The cells were exposed to the treatment agents for 4 hours, after which the media was replaced. Cell survival/death levels were measured after 72 hours by XTT. The percent of cell survival was determined as the absorbance signal with subtracted background (media only) and normalized by mock. Each experimental combination was performed in quadruplicate/pentaplicate.
as §3, with “Cisplatin,” for “Taxol (Paclitaxel),”

[3] = test system: Methicillin-resistant Staphylococcus aureus (MRSA); test: MRSA killing by CFU counting after 4 h incubation; details: for Percentage death of MRSA cells, Antibiotics alone: antibiotic at MIC value; for Percentage death of MRSA cells, Antibiotics + CBD (565 μM): antibiotic at MIC value + CBD 565 μM
NAR cell's efflux pumps = test: Doxorubicin efflux into the media from pre-treated resistant cells; assay type: cell-based; details: NAR pre-treated with sub-lethal Doxorubicin; media with vs without cannabinoid, 5 minutes to 24 hours
Protocol: A resistant ovarian cancer cell line (NAR) was pre-treated with sub-lethal concentrations of Doxorubicin (Dox), and then incubated in media with and without THCa or CBD for time periods ranging from 5 minutes to 24 hours (a total of 12 time points were measured). The ability of the cells to efflux Dox into the media was measured and compared between the cells grown in the presence and absence of THCa (FIG. 8A) or CBD (FIG. 8B).

[4] = test system: resistant ovarian cancer cells (NAR); assay type: cell-based; details: CBN 674 or 270 μM added to Dox
[5] = test system: non-resistant ovarian cancer cells (OVCAR8); test: XTT cell survival/death, non-resistant ovarian cancer cells; assay type: cell-based; details: Doxorubicin 30 μM alone, 4 h exposure, XTT after 72 h
Protocol: as §2, with “cancer cells lines (OVCAR8) and” for “cancer cells line (OVCAR8) and”, “ovarian cancer cells line (NAR)” for “ovarian cancer cell line (NAR)”, “Doxorubicin (Dox), Tetrahydrocannabinolic acid (THCa) and combinations” for “Doxorubicin (Dox), Cannabidiol (CBD) and combinations”
as §2

[6] = test system: lung cancer resistant cells (NCI-H69/LX4); assay type: cell-based; details: 4 h exposure, XTT after 72 h
Protocol: as §1, with “A multi-drug” for “A”, “small cell lung” for “pancreatic”, “(NCI-H69/LX4)” for “(PANC-1)”, “Vincristine,” for “fluorouracil (5-FU),”

O=c1[nH]cc(F)c(=O)[nH]1 [5-FU, fluorouracil]
cell death ([1]; 5-FU 2 μM alone): 14%

C=C(C)[C@@H]1CCC(C)=C[C@H]1c1c(O)cc(CCCCC)cc1O [CBD, 2-[(6R)-3-Methyl-6-prop-1-en-2-yl-lcyclohex-2-envyl]-5pentylbenzene-1,3-diol]
cell death ([2]; CBD 283 μM + Doxorubicin 30 μM): 35% | cell death ([2]; CBD 565 μM + Doxorubicin 30 μM): 75% | Percentage death of MRSA cells, CBD (565 μM) alone ([3]; Table 2, CBD 565 μM without antibiotic, 4 hours): 9% | decrease of Dox efflux levels (NAR cell's efflux pumps): ~40%

CCCCCc1cc(O)c2c(c1)OC(C)(C)c1ccc(C)cc1-2 [CBN, Cannabinol]
effect on Dox toxicity (enhancement of cell death) [4]: did not significantly enhance cell death

O=C(N[C@H](CO)[C@H](O)c1ccc([N+](=O)[O-])cc1)C(Cl)Cl [Chloramphenicol]
Percentage death of MRSA cells, Antibiotics alone ([3]; Table 1, 4 hours): 12% | Percentage death of MRSA cells, Antibiotics + CBD (565 μM) ([3]; Table 2, 4 hours): 58% | Percentage death of MRSA cells, Antibiotics alone ([3]; Table 2, 4 hours): 12%

O=C(O)c1cn(C2CC2)c2cc(N3CCNCC3)c(F)cc2c1=O [Ciprofloxacin]
Percentage death of MRSA cells, Antibiotics alone ([3]; Table 1, 4 hours): 14% | Percentage death of MRSA cells, Antibiotics + CBD (565 μM) ([3]; Table 2, 4 hours): 54% | Percentage death of MRSA cells, Antibiotics alone ([3]; Table 2, 4 hours): 14%

N.N.[Cl][Pt][Cl] [Cisplatin]
cell death ([2]; Cisplatin 115 μM alone): 12%

COc1cccc2c1C(=O)c1c(O)c3c(c(O)c1C2=O)C[C@@](O)(C(=O)CO)C[C@@H]3O[C@H]1C[C@H](N)[C@H](O)[C@H](C)O1 [Doxorubicin]
cell death ([2]; Doxorubicin 30 μM alone): 16% and 20% | cell death ([2]; Doxorubicin 30 μM alone, listed as Dox): 20% | cell death [5]: 94%

CO[C@H]1/C=C/O[C@@]2(C)Oc3c(C)c(O)c4c(O)c(c(/C=N/N5CCN(C)CC5)c(O)c4c3C2=O)NC(=O)/C(C)=C\C=C\[C@H](C)[C@H](O)[C@@H](C)[C@@H](O)[C@@H](C)[C@H](OC(C)=O)[C@@H]1C [Rifampicin]
Percentage death of MRSA cells, Antibiotics alone ([3]; Table 1, 4 hours): 17% | Percentage death of MRSA cells, Antibiotics + CBD (565 μM) ([3]; Table 2, 4 hours): 73% | Percentage death of MRSA cells, Antibiotics + CBD (565 μM) ([3]; Table 2, 4 hours, listed as rifampicin): 73% | Percentage death of MRSA cells, Antibiotics alone ([3]; Table 2, 4 hours): 17%

CCCCCc1cc2c(c(O)c1C(=O)O)[C@@H]1C=C(C)CC[C@H]1C(C)(C)O2 [THCa, tetrahydrocannabinolic acid]
cell death ([2]; THCa 86 μM + Doxorubicin 30 μM): 64% | cell death ([2]; THCa 172 μM + Doxorubicin 30 μM): 86% | cell death ([2]; THCa 247 μM + Cisplatin 115 μM): 94% | cell death ([2]; THCa 247 μM + Taxol 50 μM): 94% | cell death ([2]; THCa 247 μM alone): 20% and 18% | cell death ([6]; THCa 247 μM + Vincristine 10 μM): 95% | cell death ([6]; THCa 247 μM alone): 12% | Percentage death of MRSA cells, THCa (88 μM) alone ([3]; Table 1, THCa 88 μM without antibiotic, 4 hours): 6% | decrease of Dox efflux levels (NAR cell's efflux pumps): ~50% | cell death ([1]; THCa 247 μM + 5-FU 2 μM): 77% | cell death ([1]; THCa 247 μM alone): 8%

CC(=O)O[C@H]1C(=O)[C@@]2(C)[C@H]([C@H](OC(=O)c3ccccc3)[C@]3(O)C[C@H](OC(=O)[C@H](O)[C@@H](NC(=O)c4ccccc4)c4ccccc4)C(C)=C1C3(C)C)[C@]1(OC(C)=O)CO[C@@H]1C[C@@H]2O [Taxol, Paclitaxel]
cell death ([2]; Taxol 50 μM alone): 23%

CN(C)[C@@H]1C(O)=C(C(N)=O)C(=O)[C@@]2(O)C(O)=C3C(=O)c4c(O)cccc4[C@@](C)(O)[C@H]3C[C@@H]12 [Tetracycline]
Percentage death of MRSA cells, Antibiotics alone ([3]; Table 1, 4 hours): 7% | Percentage death of MRSA cells, Antibiotics + CBD (565 μM) ([3]; Table 2, 4 hours): 42% | Percentage death of MRSA cells, Antibiotics + CBD (565 μM) ([3]; Table 2, 4 hours, listed as tetracycline): 42% | Percentage death of MRSA cells, Antibiotics alone ([3]; Table 2, 4 hours): 7%

CN[C@H](CC(C)C)C(=O)N[C@H]1C(=O)N[C@@H](CC(N)=O)C(=O)N[C@H]2C(=O)N[C@H]3C(=O)N[C@H](C(=O)N[C@H](C(=O)O)c4cc(O)cc(O)c4-c4cc3ccc4O)[C@H](O)c3ccc(c(Cl)c3)Oc3cc2cc(c3O[C@@H]2O[C@H](CO)[C@@H](O)[C@H](O)[C@H]2O[C@H]2C[C@](C)(N)[C@H](O)[C@H](C)O2)Oc2ccc(cc2Cl)[C@H]1O [Vancomycin]
Percentage death of MRSA cells, Antibiotics alone ([3]; Table 1, 4 hours): 8% | Percentage death of MRSA cells, Antibiotics + CBD (565 μM) ([3]; Table 2, 4 hours): 61% | Percentage death of MRSA cells, Antibiotics alone ([3]; Table 2, 4 hours): 8%

CC[C@]1(O)C[C@H]2CN(CCc3c([nH]c4ccccc34)[C@@](C(=O)OC)(c3cc4c(cc3OC)N(C=O)[C@H]3[C@@](O)(C(=O)OC)[C@H](OC(C)=O)[C@]5(CC)C=CCN6CC[C@]43[C@@H]65)C2)C1 [Vincristine]
cell death ([6]; Vincristine 10 μM alone): 17%

Gentamycin
Percentage death of MRSA cells, Antibiotics + THCa (88 μM) [3]: 85% | Percentage death of MRSA cells, Antibiotics alone ([3]; Table 1, 4 hours): 15% | Percentage death of MRSA cells, Antibiotics + CBD (565 μM) ([3]; Table 2, 4 hours): 58% | Percentage death of MRSA cells, Antibiotics alone ([3]; Table 2, 4 hours): 15%
